The test system of one assay is HepG2. Nature of the assay: Cytotoxicity against human HepG2 cells assessed as inhibition of cell proliferation after 72 hrs by MTT assay. Conditions: HepG2, 72 h; call rule not given here. It is filed as functional, cell-based. Background: Tetrazolium dyes change colour on reduction, which living cells bring about.
Another assay relates to A549. The assay is described as follows: Cytotoxicity against human A549 cells assessed as inhibition of cell proliferation after 72 hrs by MTT assay. Format: functional, cell-based. Particulars: A549, 72 h.
Assay [1] is described as follows: Cytotoxicity against human BGC823 cells assessed as inhibition of cell proliferation after 72 hrs by MTT assay. It is filed as functional, cell-based. Particulars: BGC-823, 72 h.
A further assay has as its system MCF7. The assay is described as follows: Cytotoxicity against human MCF7 cells assessed as inhibition of cell proliferation after 72 hrs by MTT assay. It is filed as functional, cell-based. Conditions: MCF7, 72 h.
A short description of assay [2]: Cytotoxicity against human PC3 cells assessed as inhibition of cell proliferation after 72 hrs by MTT assay. It is filed as functional, cell-based, PC-3.
Where [3] appears, read: Homo sapiens, PC-3, 72 h, read-out: IC50.

The IC50 is the midpoint of a concentration-inhibition curve.

Consider `Cc1cn(CCCCCCCCOC(=O)[C@]23CCC(C)(C)C[C@H]2C2=CC[C@@H]4[C@@]5(C)CC[C@H](O)C(C)(C)[C@@H]5CC[C@@]4(C)[C@]2(C)CC3)c(=O)[nH]c1=O`, for which the IC50 in the assay on HepG2 came to 8.72 µM; with A549, 1.11 µM; in assay [1], 0.29 µM; in the assay with MCF7, 16.1 µM; in assay [2] (setting [3]) it was 0.23 µM.

`O=c1[nH]cc(F)c(=O)[nH]1` [FLUOROURACIL]: the IC50 in the assay with HepG2 was found to be 55.7 µM; with A549, 22.6 µM; in assay [1], 8.82 µM; in the assay with MCF7, 21.5 µM; in assay [2] (setting [3]), 12.2 µM.

In the case of `CC1(C)CC[C@]2(C(=O)OCCCCCCCCn3ccc(=O)[nH]c3=O)CC[C@]3(C)C(=CC[C@@H]4[C@@]5(C)CC[C@H](O)C(C)(C)[C@@H]5CC[C@]43C)[C@@H]2C1`, the IC50 with HepG2 was 1.05 µM; in the assay with A549 it was 8.47 µM; in assay [1], 14.9 µM; in the assay on MCF7, < 0.1 µM; in assay [2] (setting [3]), 20.9 µM.

`Cc1cn(CCOC(=O)[C@]23CCC(C)(C)C[C@H]2C2=CC[C@@H]4[C@@]5(C)CC[C@H](O)C(C)(C)[C@@H]5CC[C@@]4(C)[C@]2(C)CC3)c(=O)[nH]c1=O`: the IC50 in the assay on HepG2 was found to be 5.41 µM; in the assay with A549, 35.1 µM; in assay [1], 0.16 µM; with MCF7, 10.2 µM; in assay [2] (setting [3]) it was 1.93 µM.

Take `Cc1cn(CCCCCCCCOC(=O)[C@@]23CCC(C)(C)C[C@@H]2C2=CC[C@H]4[C@]5(C)CC[C@@H](O)C(C)(C)[C@H]5CC[C@]4(C)[C@@]2(C)CC3)c(=O)n(CCCCCCCCOC(=O)[C@@]23CCC(C)(C)C[C@@H]2C2=CC[C@H]4[C@]5(C)CC[C@@H](O)C(C)(C)[C@H]5CC[C@]4(C)[C@@]2(C)CC3)c1=O`: the IC50 in the assay on HepG2 was 4.83 µM; in the assay with A549 it was < 0.1 µM; in assay [1], 3.11 µM; in the assay on MCF7, 4.45 µM; in assay [2] (setting [3]), 20 µM.

In the case of `CC1(C)CC[C@]2(C(=O)OCCCCCCn3ccc(=O)n(CCCCCCOC(=O)[C@]45CCC(C)(C)C[C@H]4C4=CC[C@@H]6[C@@]7(C)CC[C@H](O)C(C)(C)[C@@H]7CC[C@@]6(C)[C@]4(C)CC5)c3=O)CC[C@]3(C)C(=CC[C@@H]4[C@@]5(C)CC[C@H](O)C(C)(C)[C@@H]5CC[C@]43C)[C@@H]2C1`, the IC50 in the assay on HepG2 was 0.99 µM; in the assay on A549 it was 6.98 µM; in assay [1] it was 0.68 µM; with MCF7 it was < 0.1 µM; in assay [2] (setting [3]) it was 15.5 µM.

On to `CC1(C)CC[C@]2(C(=O)OCCn3ccc(=O)[nH]c3=O)CC[C@]3(C)C(=CC[C@@H]4[C@@]5(C)CC[C@H](O)C(C)(C)[C@@H]5CC[C@]43C)[C@@H]2C1`, for which the IC50 in the assay with HepG2 was 15.2 µM; in the assay with A549, 0.36 µM; in assay [1], 0.37 µM; in the assay with MCF7 it was 45.9 µM; in assay [2] (setting [3]), 9.61 µM.

For `Cc1cn(CCCCCCOC(=O)[C@]23CCC(C)(C)C[C@H]2C2=CC[C@@H]4[C@@]5(C)CC[C@H](O)C(C)(C)[C@@H]5CC[C@@]4(C)[C@]2(C)CC3)c(=O)[nH]c1=O`, the IC50 is 5.09 µM with HepG2; < 0.1 µM in the assay on A549; 0.37 µM in assay [1]; 4.01 µM in the assay with MCF7; 8.37 µM in assay [2] (setting [3]).

As to `Cc1cn(CCOC(=O)[C@]23CCC(C)(C)C[C@H]2C2=CC[C@@H]4[C@@]5(C)CC[C@H](O)C(C)(C)[C@@H]5CC[C@@]4(C)[C@]2(C)CC3)c(=O)n(CCOC(=O)[C@]23CCC(C)(C)C[C@H]2C2=CC[C@@H]4[C@@]5(C)CC[C@H](O)C(C)(C)[C@@H]5CC[C@@]4(C)[C@]2(C)CC3)c1=O`, the IC50 in the assay on HepG2 was 5.19 µM; in the assay on A549, 0.79 µM; in assay [1], 1.89 µM; with MCF7, 3.02 µM; in assay [2] (setting [3]), 1.16 µM.

As for `Cc1cn(CCCCCCOC(=O)[C@]23CCC(C)(C)C[C@H]2C2=CC[C@@H]4[C@@]5(C)CC[C@H](O)C(C)(C)[C@@H]5CC[C@@]4(C)[C@]2(C)CC3)c(=O)n(CCCCCCOC(=O)[C@]23CCC(C)(C)C[C@H]2C2=CC[C@@H]4[C@@]5(C)CC[C@H](O)C(C)(C)[C@@H]5CC[C@@]4(C)[C@]2(C)CC3)c1=O`, the IC50 in the assay on HepG2 was 4.84 µM; with A549, < 0.1 µM; in assay [1], 0.62 µM; in the assay on MCF7 it was 33.6 µM; in assay [2] (setting [3]), 0.87 µM.

With `CC1(C)CC[C@]2(C(=O)OCCn3ccc(=O)n(CCOC(=O)[C@]45CCC(C)(C)C[C@H]4C4=CC[C@@H]6[C@@]7(C)CC[C@H](O)C(C)(C)[C@@H]7CC[C@@]6(C)[C@]4(C)CC5)c3=O)CC[C@]3(C)C(=CC[C@@H]4[C@@]5(C)CC[C@H](O)C(C)(C)[C@@H]5CC[C@]43C)[C@@H]2C1`, the IC50 is 111 µM in the assay on HepG2; 9.21 µM in the assay on A549; 0.86 µM in assay [1]; 29.8 µM in the assay on MCF7; “Not Active” in assay [2] (pc-3).

As to `CC1(C)CC[C@]2(C(=O)OCCCCCCCCn3ccc(=O)n(CCCCCCCCOC(=O)[C@]45CCC(C)(C)C[C@H]4C4=CC[C@@H]6[C@@]7(C)CC[C@H](O)C(C)(C)[C@@H]7CC[C@@]6(C)[C@]4(C)CC5)c3=O)CC[C@]3(C)C(=CC[C@@H]4[C@@]5(C)CC[C@H](O)C(C)(C)[C@@H]5CC[C@]43C)[C@@H]2C1`, the IC50 was found to be 10.3 µM in the assay with HepG2; 37.1 µM in the assay on A549; 0.27 µM in assay [1]; 3.78 µM with MCF7; 22.2 µM in assay [2] (setting [3]).

As for `CC1(C)CC[C@]2(C(=O)O)CC[C@]3(C)C(=CC[C@@H]4[C@@]5(C)CC[C@H](O)C(C)(C)[C@@H]5CC[C@]43C)[C@@H]2C1` [OLEANOLIC_ACID], the IC50 in the assay on HepG2 amounted to 15.9 µM; in the assay on A549, 16.3 µM; in assay [1], 23.7 µM; in the assay with MCF7, 12.6 µM; in assay [2] (setting [3]), 72.7 µM.

For the compound `CC1(C)CC[C@]2(C(=O)OCCCCn3ccc(=O)n(CCCCOC(=O)[C@]45CCC(C)(C)C[C@H]4C4=CC[C@@H]6[C@@]7(C)CC[C@H](O)C(C)(C)[C@@H]7CC[C@@]6(C)[C@]4(C)CC5)c3=O)CC[C@]3(C)C(=CC[C@@H]4[C@@]5(C)CC[C@H](O)C(C)(C)[C@@H]5CC[C@]43C)[C@@H]2C1`, the concentration for half-maximal inhibition (IC50) was 3.95 µM in the assay on HepG2; 4.09 µM in the assay with A549; 0.15 µM in assay [1]; 130 µM in the assay with MCF7; 4.79 µM in assay [2] (setting [3]).

As for `Cc1cn(CCCCOC(=O)[C@]23CCC(C)(C)C[C@H]2C2=CC[C@@H]4[C@@]5(C)CC[C@H](O)C(C)(C)[C@@H]5CC[C@@]4(C)[C@]2(C)CC3)c(=O)n(CCCCOC(=O)[C@]23CCC(C)(C)C[C@H]2C2=CC[C@@H]4[C@@]5(C)CC[C@H](O)C(C)(C)[C@@H]5CC[C@@]4(C)[C@]2(C)CC3)c1=O`, the IC50 in the assay with HepG2 was 3.02 µM; in the assay on A549, < 0.1 µM; in assay [1], 16 µM; in the assay on MCF7 it was 3.69 µM; in assay [2] (setting [3]), 1.28 µM.

With `Cc1cn(CCCCOC(=O)[C@]23CCC(C)(C)C[C@H]2C2=CC[C@@H]4[C@@]5(C)CC[C@H](O)C(C)(C)[C@@H]5CC[C@@]4(C)[C@]2(C)CC3)c(=O)[nH]c1=O`, the 50% inhibitory concentration (IC50) was found to be 2.41 µM in the assay on HepG2; 4.73 µM in the assay on A549; 1.13 µM in assay [1]; 1.03 µM in the assay with MCF7; 0.43 µM in assay [2] (setting [3]).

With `CC1(C)CC[C@]2(C(=O)OCCCCn3ccc(=O)[nH]c3=O)CC[C@]3(C)C(=CC[C@@H]4[C@@]5(C)CC[C@H](O)C(C)(C)[C@@H]5CC[C@]43C)[C@@H]2C1`, the IC50 stood at 4.21 µM in the assay on HepG2; 0.11 µM in the assay with A549; 0.93 µM in assay [1]; 70.4 µM with MCF7; 1.45 µM in assay [2] (setting [3]).

(Values after ChEMBL document CHEMBL3817739, “Synthesis and cytotoxic evaluation of several oleanolic aciduracil/thymine conjugates” (Medchemcomm, 2016).)
